Source: PMC12503906, “Novel Pyrazolo [1,5‐a]−1,3,5‐Triazine Derivatives as CDK7 Inhibitors: Synthesis and Biological Insights in Pancreatic Ductal Adenocarcinoma Models” (Chemmedchem, 2025)
Like-named read-outs stand apart in the source and are kept apart here.

Tests used:
[1] = system: PANC‐1; experiment: SRB chemosensitivity assay, PANC‐1 cells; assay type: cell-based; settings: Homo sapiens, read-out: IC50 PANC‐1
Procedure: (§1) Three lines of immortalized PDAC cells were selected as representative phenotypes: mesenchymal (PATU‐T), quasimesenchymal (PANC‐1), and an epithelial clone of SUIT 2 cells (SUIT 2.28). Cells were cultured in noncoated T‐75 and T‐25 flasks under adherent conditions, using 1× DMEM (Gibco, 41,966,029) for PATU‐T and RPMI (Gibco, 21,875,034) for SUIT 2.28 and PANC‐1, both supplemented with 10% NBCS and 1% P/S. Additional employed models were the PDAC3 cells, a primary cell culture, the PSCs, which were immortalized healthy pancreatic cells, and the PATU‐T‐GR, which was a gemcitabine resistant model of PATU‐T. PDAC3 and PSCs were cultivated using complete RPMI medium, while PATU‐T‐GR required complete DMEM medium. For seeding, cells were detached with Trypsin‐EDTA (0.05%) (GibcoTM, 25,300–096) and were consequently counted using the Automated Cell Counter (Luna‐II, Westburg). Cells were then plated on 96‐ or 6‐well plates depending on the planned experiment.
(§2) The Sulforhodamine B (SRB) chemosensitivity assay was used to measure cytotoxicity and cell proliferation post drug treatment. At day 0, 3–6 × 10^3 cells were seeded in a 96‐well plate, depending on the cell line. At day 1, cells were attached and ready to be treated. For the calculation of the IC50, drug dilutions for the compounds 1b, 1c, 1d, 1e, 1g, 1hr, 1i, 1j, and LDC4297 (MedChemExpress, HY‐12,653) were prepared in dilution trays and eight different concentrations were included. These were added in triplicates to the cells, which were then incubated for […] at 37 °C in 5% CO2. During day 1, the control plate was fixed with 50% Trichloroacetic acid (TCA), as intended to be the baseline plate used for the normalization of the data. 72 h post‐treatment, the cells were fixed with TCA, and placed at 4 °C for about 2 h. The plates were then washed with distillated water and left to dry under the hood with ventilation. Subsequently, plates were stained with 0.4% SRB for 15 min and washed with 1% acetic acid to remove excess stain. Once dried again, the protein‐bound SRB was dissolved in 10 mM TRIS, and the plates were placed on a shaker for 10 min per plate. Lastly, the absorbance was measured at 492 nm with a spectrophotometer (Synergy HT, BioTek). The absorbance data obtained were normalized to the day 1 control, and the percentage of cell growth in relation to the control was calculated using the following formula. (1) %Cell growth=Mean OD treatment−Mean OD day0/Mean OD control−Mean OD day0×100
(§3) The percentage of proliferation and their respective standard deviations were used to perform statistical analysis in GraphPad Prism software v 10 (GraphPad Software, San Diego, CA). Data were normalized to the day 0 control and to their own untreated 72 h control. These were transformed into logarithmic data, and log(inhibitor) versus response analysis was performed for obtaining the IC50 values per cell lines. Each experiment was conducted in triplicates.

[2] = system: PATU‐T; experiment: Cell cycle analysis (FACS, PI staining), PATU‐T; assay type: cell-based; settings: for percentage of cells in the G2‐M phase: untreated 18.4%; for percentage of cells in the S phase: untreated 32.5%; for percentage of cells in the G0‐G1 phase: untreated 49.1%
Procedure: (§4) Modulation of the cell cycle was analyzed via flow cytometry. Cells (5 × 10^5 cells mL^− ^1) were seeded in 6‐well plates and were incubated at 37 °C overnight. Cells were treated with the compounds 1b and 1g at two different concentrations (1 × IC50 and 4 × IC50, according to each cell line) and were again incubated for 24 and 72 h. After treatment, cells were harvested with trypsin and were collected in specific fluorescence‐activated cell sorting (FACS) tubes. Cells were then washed with PBS and centrifuged at 1500 rpm for 5 min, in order to form a pellet. These pellets were fixed in 1 mL of ice‐cold 70% ethanol, added drop by drop during vortex, and placed in the refrigerator at 4 °C. After overnight incubation, the cells were washed twice with PBS, centrifuged (5 min at 1500 rpm), resuspended in 50 µL of RNase (100 µg mL^− ^1), and incubated for 30 min at 37 °C. Finally, 200 µL of propidium iodide solution (PI, 50 µg mL^− ^1) was added, and the cell distribution in the various phases of the cell cycle was analyzed via BD LSRFortessa Cell Analyzer. Data analysis was carried out with FACSdiva software (Becton Dickinson), while cell cycle distribution was determined using FCS express software.

[3] = system: PATU‐T GR; experiment: Wound healing assay, PATU‐T GR; assay type: cell-based; settings: 1× and 4 × IC50, up to 24 h
Procedure: The wound healing assay was used to test the migratory ability of the selected cells post‐treatment. Cells (5 × 10^4 /well) were seeded on 96‐well. After 24 h, cells reached the optimal 100% confluency, and an artificial wound was created with a 96‐well Pintool Scratcher. The cells were immediately washed with complete medium, in order to remove cell debris after the scratch, and images of the wells were captured at time 0 h, right before the addition of the treatment. Each drug (1b and 1g) was previously diluted in the respective medium at two different concentrations: 1 × IC50 and 4 × IC50 (according to the cell specific IC50 value) and were then added to the cells. Images were then taken at timepoints 4, 8, 20, and 24 h using the Leica microscope with a JAI TMC‐137 camera to assess wound closure. The images were analyzed using the Universal Grab 6.3 software (DCILabs), and the obtained data were used to determine the percentage of migration of the cells, using the following formula. (2) % Migration=Mean width of the wound atT=0−Mean width of the wound atT=X/Mean width of the wound atT=0×100

[4] = system: PDAC3; experiment: Cell cycle analysis (FACS, PI staining), PDAC3; assay type: cell-based; settings: for percentage of cells in the G2‐M phase: untreated 13.3%; for percentage of cells in the G0‐G1 phase: untreated 50.0%; for percentage of cells in the S phase: untreated 36.7%
Procedure: as §4

[5] = system: SUIT 2.28; experiment: SRB chemosensitivity assay, SUIT 2.28 cells; assay type: cell-based; settings: read-out: IC50 SUIT 2.28
Procedure: as §1, §2, §3

[6] = target: phosphorylated CDK7 (p‐CDK7) (Homo sapiens, UniProt P50613); experiment: Phospho‐CDK7 (Thr170) cell‐based ELISA, SUIT 2.28; parameters: two PDAC preclinical models (SUIT 2.28 and PDAC3); endogenous in cells; host or cells: SUIT 2.28; settings: SUIT 2.28, 4 × IC50, ELISA
Chain of phosphorylated CDK7 (p‐CDK7) (P50613 2-346 limits assumed): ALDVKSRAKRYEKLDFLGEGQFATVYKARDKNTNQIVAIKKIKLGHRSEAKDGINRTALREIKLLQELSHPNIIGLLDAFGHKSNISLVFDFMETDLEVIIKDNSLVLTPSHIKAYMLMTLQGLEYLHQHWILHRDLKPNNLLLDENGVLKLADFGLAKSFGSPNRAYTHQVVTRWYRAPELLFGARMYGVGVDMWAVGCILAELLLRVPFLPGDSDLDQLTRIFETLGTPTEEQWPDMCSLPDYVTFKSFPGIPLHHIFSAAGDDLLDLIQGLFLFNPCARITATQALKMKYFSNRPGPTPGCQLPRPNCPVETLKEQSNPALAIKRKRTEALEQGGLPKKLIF
Chain of phosphorylated CDK7 (p‐CDK7) (P51946 whole entry partner): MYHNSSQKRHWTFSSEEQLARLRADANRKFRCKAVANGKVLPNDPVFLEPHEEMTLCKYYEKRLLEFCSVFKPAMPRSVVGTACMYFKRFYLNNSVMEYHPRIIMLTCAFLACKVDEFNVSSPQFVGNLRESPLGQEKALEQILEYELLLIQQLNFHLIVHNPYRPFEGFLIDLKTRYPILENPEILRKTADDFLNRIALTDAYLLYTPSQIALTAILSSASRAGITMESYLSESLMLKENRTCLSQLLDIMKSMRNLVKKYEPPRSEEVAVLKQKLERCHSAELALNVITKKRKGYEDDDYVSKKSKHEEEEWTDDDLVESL
Chain of phosphorylated CDK7 (p‐CDK7) (P51948 whole entry partner): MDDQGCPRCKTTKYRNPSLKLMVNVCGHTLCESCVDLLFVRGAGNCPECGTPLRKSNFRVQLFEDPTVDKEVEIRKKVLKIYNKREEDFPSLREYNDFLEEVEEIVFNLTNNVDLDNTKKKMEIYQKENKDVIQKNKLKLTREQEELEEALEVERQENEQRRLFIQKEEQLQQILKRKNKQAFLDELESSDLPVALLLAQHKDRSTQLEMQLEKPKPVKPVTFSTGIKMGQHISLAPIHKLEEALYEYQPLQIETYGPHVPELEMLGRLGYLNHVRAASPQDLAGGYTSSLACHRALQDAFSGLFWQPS
Procedure: To detect CDK7 and phospho‐CDK7 levels at Thr170 residue after treatment, an enzyme‐linked immunosorbent assay (Biomatik, Phospho‐CDK7 (Thr170) Colorimetric Cell‐Based ELISA Kit, Cat# EKA51274) was performed according to the manufacturer's protocols. […] The absorbance was read at 450 nm using a microplate reader.

| Structure (SMILES) | IC50 ([1]; PANC-1, SRB, 72 h of treatment, average ± SEM, triplicate) [µM] | percentage of cells in the G2‐M phase ([2]; 1 × IC50, 24 h) [%] | percentage of cells in the S phase ([2]; 1 × IC50, 24 h) [%] | percentage of cells in the G0‐G1 phase ([2]; 1 × IC50, 24 h) [%] | percentage of cells in the G2‐M phase ([2]; 4 × IC50, 24 h) [%] | percentage of cells in the S phase ([2]; 4 × IC50, 24 h) [%] | percentage of cells in the G0‐G1 phase ([2]; 4 × IC50, 24 h) [%] | inhibition of cell migration [3] | percentage of cells in the G2‐M phase ([4]; PDAC3, 1 × IC50, 24 h) [%] | percentage of cells in the G0‐G1 phase ([4]; PDAC3, 1 × IC50, 24 h) [%] | percentage of cells in the G2‐M phase ([4]; PDAC3, 4 × IC50, 24 h) [%] | percentage of cells in the S phase ([4]; PDAC3, 4 × IC50, 24 h) [%] | percentage of cells in the G0‐G1 phase ([4]; PDAC3, 4 × IC50, 24 h) [%] | IC50 ([5]; SRB, 72 h of treatment, average ± SEM, triplicate) [µM] | p‐CDK7 expression vs untreated [6] | IC50 ([1]; PANC-1, 72 h) [µM] | percentage of cells in the S phase ([4]; PDAC3, 1 × IC50, 24 h) [%] | IC50 ([5]; 72 h) [µM] |
| --- | --- | --- | --- | --- | --- | --- | --- | --- | --- | --- | --- | --- | --- | --- | --- | --- | --- | --- |
| Nc1ncnc2cc(-c3c[nH]c4ccc(Br)cc34)nn12 [Compound 1b, 7‐(5‐Bromo‐1H‐indol‐3‐yl)pyrazolo[1,5‐a][1,3,5]triazin‐4‐amine] | 4.3 ± 0.8 | 14.9 | 49.6 | 35.5 | 10.1 | 60.0 | 30.0 | significantly inhibited as early as 4 h | 11.1 | 44.0 | 6.9 | 51.6 | 41.6 | 0.6 ± 0.1 | decrease in p‐CDK7 expression | – | – | – |
| Cn1cc(-c2cc3ncnc(N)n3n2)c2cc(Br)ccc21 [Compound 1g, 7‐(5‐Bromo‐1‐methyl‐1H‐indol‐3‐yl)pyrazolo[1,5‐a][1,3,5]triazin‐4‐amine] | – | 17.7 | 35.0 | 47.4 | 15.2 | 39.0 | 45.7 | significantly inhibited as early as 4 h | 13.3 | 55.9 | 9.8 | 30.4 | 59.8 | – | decrease in p‐CDK7 expression | 2.9 ± 0.8 | 30.8 | 0.2 ± 0.1 |
